Molecules are shown by their SMILES.

The target of this experiment is SMYD3 (Homo sapiens (Human), UniProt Q9H7B4). Kind of experiment: SMYD3 biochemical assay (SPA, 3H-SAM methylation of MEKK2 protein substrate). The note with it: read-out: SMYD3 Biochem IC50 (μM)*. The gist of the method:
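SPA methyltransferase format: tag-cleaved human SMYD3, insect-cell GST-MEKK2 protein substrate, 3H-SAM donor, 30 min RT enzyme–compound preincubation, 100 uM cold SAM quench.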
For `C[C@@H]1C[C@@H](NC(=O)c2cc(C3CC3)on2)CCN1C(=O)CCCN` [compound 208, N-((2R,4S)-1-(4-aminobutanoyl)-2-methylpiperidin-4-yl)-5-cyclopropylisoxazole-3-carboxamide], the half-inhibitory concentration (IC50) (usually the concentration that gives 50% inhibition) stood at 3.82 µM.

Turning to `C[C@@H]1C[C@@H](NC(=O)c2cc(C3CC3)on2)CCN1S(=O)(=O)CCCN` [compound 209, N-((2R,4S)-1-((3-aminopropyl)sulfonyl)-2-methylpiperidin-4-yl)-5-cyclopropylisoxazole-3-carboxamide], the IC50 was 0.1 µM.

As to `NCCCC(=O)N1C2CCCC1CC(NC(=O)c1cc(C3CC3)on1)C2` (stereo not shown) [compound 211, N-(9-(4-aminobutanoyl)-9-azabicyclo[3.3.1]nonan-3-yl)-5-cyclopropylisoxazole-3-carboxamide], the IC50 was found to be 5.85 µM.

For the compound `C[C@@H]1C[C@H](NC(=O)c2cc(C3CC3)on2)CCN1C(=O)CCCCN` [compound 212, N-((2R,4R)-1-(5-aminopentanoyl)-2-methylpiperidin-4-yl)-5-cyclopropylisoxazole-3-carboxamide], the IC50 stood at 0.838 µM.

Take `C[C@@H]1C[C@@H](NC(=O)c2cc(C3CC3)on2)CCN1S(=O)(=O)C1CC1` [compound 213, 5-cyclopropyl-N-((2R,4S)-1-(cyclopropylsulfonyl)-2-methylpiperidin-4-yl)isoxazole-3-carboxamide]: the IC50 was over 10 µM.

For `CNS(=O)(=O)N1CC[C@H](NC(=O)c2cc(C3CC3)on2)C[C@H]1C` [compound 214, 5-cyclopropyl-N-((2R,4S)-2-methyl-1-(N-methylsulfamoyl)piperidin-4-yl)isoxazole-3-carboxamide], the IC50 was over 10 µM.

For the compound `COCCS(=O)(=O)N1CC[C@H](NC(=O)c2cc(C3CC3)on2)C[C@H]1C` [compound 215, 5-cyclopropyl-N-((2R,4S)-1-((2-methoxyethyl)sulfonyl)-2-methylpiperidin-4-yl)isoxazole-3-carboxamide], the IC50 is over 10 µM.

With `C[C@@H]1C[C@H](NC(=O)c2cc(C3CC3)on2)CCN1S(=O)(=O)C1CC1` [compound 216, 5-cyclopropyl-N-((2R,4R)-1-(cyclopropylsulfonyl)-2-methylpiperidin-4-yl)isoxazole-3-carboxamide], the IC50 was over 10 µM.

For `CNS(=O)(=O)N1CC[C@@H](NC(=O)c2cc(C3CC3)on2)C[C@H]1C` [compound 217, 5-cyclopropyl-N-((2R,4R)-2-methyl-1-(N-methylsulfamoyl)piperidin-4-yl)isoxazole-3-carboxamide], the IC50 came out at 6.76 µM.

In the case of `CC(C)(C)C1CC(NC(=O)c2cc(C3CC3)on2)CCN1C(=O)CCCN` (stereo not shown) [compound 219, N-(1-(4-aminobutanoyl)-2-(tert-butyl)piperidin-4-yl)-5-cyclopropylisoxazole-3-carboxamide], the IC50 turned out to be 6.32 µM.

For the compound `NCCCC(=O)N1CC[C@@H](NC(=O)c2cc(C3CC3)on2)[C@H](c2ccccc2)C1` [compound 220, N-((3R,4R)-1-(4-aminobutanoyl)-3-phenylpiperidin-4-yl)-5-cyclopropylisoxazole-3-carboxamide], the concentration for half-maximal inhibition (IC50) stood at 2.52 µM.

Consider `NCCCC(=O)N1CC[C@H](NC(=O)c2cc(C3CC3)on2)[C@H](c2ccccc2)C1` [compound 221, N-((3R,4S)-1-(4-aminobutanoyl)-3-phenylpiperidin-4-yl)-5-cyclopropylisoxazole-3-carboxamide], for which the IC50 is over 10 µM.

Take `C[C@H]1CC(NC(=O)c2cc(C3CC3)on2)CCN1C(=O)C12C3C4C1C1C2C3C41N` (stereo partly drawn) [compound 222, N-((2S)-1-(4-aminocubane-1-carbonyl)-2-methylpiperidin-4-yl)-5-cyclopropylisoxazole-3-carboxamide]: the IC50 is 4.64 µM.

With `C[C@H]1CC(NC(=O)c2cc(C3CC3)on2)CCN1C(=O)CC1(O)CCNCC1` (stereo partly drawn) [compound 223, 5-cyclopropyl-N-((2S)-1-(2-(4-hydroxypiperidin-4-yl)acetyl)-2-methylpiperidin-4-yl)isoxazole-3-carboxamide], the IC50 worked out at 7.19 µM.

Take `C[C@@H]1CC(NC(=O)c2cc(C3CC3)on2)CCN1C(=O)C1(C)CCNCC1` (stereo partly drawn) [compound 224, 5-cyclopropyl-N-((2R)-2-methyl-1-(4-methylpiperidine-4-carbonyl)piperidin-4-yl)isoxazole-3-carboxamide]: the half-inhibitory concentration (IC50) worked out at 1.42 µM.

Take `C[C@@H]1C[C@@H](NC(=O)c2cc(C3CC3)on2)CCN1C(=O)CC(O)CN` (stereo partly drawn) [compound 225, N-((2R,4S)-1-(4-amino-3-hydroxybutanoyl)-2-methylpiperidin-4-yl)-5-cyclopropylisoxazole-3-carboxamide]: the IC50 was found to be 9.05 µM.

On to `C[C@H]1CC(NC(=O)c2cc(C3CC3)on2)CCN1C(=O)CC1CCCC(N)C1` (stereo partly drawn) [compound 226, N-((2S)-1-(2-(3-aminocyclohexyl)acetyl)-2-methylpiperidin-4-yl)-5-cyclopropylisoxazole-3-carboxamide], for which the IC50 came to 2.38 µM.

With `C[C@H]1C[C@@H](NC(=O)c2cc(C3CC3)on2)CCN1C(=O)CCCCN` [compound 228, N-((2S,4S)-1-(5-aminopentanoyl)-2-methylpiperidin-4-yl)-5-cyclopropylisoxazole-3-carboxamide], the concentration for half-maximal inhibition (IC50) is 1.28 µM.

Take `CCCS(=O)(=O)N1CC[C@H](NC(=O)c2cc(C3CC3)on2)C[C@@H]1C` [compound 229, 5-cyclopropyl-N-((2S,4S)-2-methyl-1-(propylsulfonyl)piperidin-4-yl)isoxazole-3-carboxamide]: the IC50 was 0.863 µM.

In the case of `CC(C)CS(=O)(=O)N1CC[C@H](NC(=O)c2cc(C3CC3)on2)C[C@@H]1C` [compound 230, 5-cyclopropyl-N-((2S,4S)-1-(isobutylsulfonyl)-2-methylpiperidin-4-yl)isoxazole-3-carboxamide], the IC50 was 0.472 µM.

Turning to `CCOC(=O)CS(=O)(=O)N1CC[C@H](NC(=O)c2cc(C3CC3)on2)C[C@@H]1C` [compound 231, ethyl 2-(((2S,4S)-4-(5-cyclopropylisoxazole-3-carboxamido)-2-methylpiperidin-1-yl)sulfonyl)acetate], the IC50 turned out to be 1.17 µM.

Regarding `C[C@H]1C[C@@H](NC(=O)c2cc(C3CC3)on2)CCN1S(=O)(=O)CC(F)(F)F` [compound 232, 5-cyclopropyl-N-((2S,4S)-2-methyl-1-((2,2,2-trifluoroethyl)sulfonyl)piperidin-4-yl)isoxazole-3-carboxamide], the IC50 worked out at 3.26 µM.

With `COCCS(=O)(=O)N1CC[C@H](NC(=O)c2cc(C3CC3)on2)C[C@@H]1C` [compound 233, 5-cyclopropyl-N-((2S,4S)-1-((2-methoxyethyl)sulfonyl)-2-methylpiperidin-4-yl)isoxazole-3-carboxamide], the IC50 was determined as 2.36 µM.

On to `C[C@H]1C[C@@H](NC(=O)c2cc(C3CC3)on2)CCN1S(=O)(=O)c1cn(C)cn1` [compound 234, 5-cyclopropyl-N-((2S,4S)-2-methyl-1-((1-methyl-1H-imidazol-4-yl)sulfonyl)piperidin-4-yl)isoxazole-3-carboxamide], for which the IC50 came out at 1.24 µM.

For `C[C@H]1C[C@@H](NC(=O)c2cc(C3CC3)on2)CCN1S(=O)(=O)CCC(F)(F)F` [compound 236, 5-cyclopropyl-N-((2S,4S)-2-methyl-1-((3,3,3-trifluoropropyl)sulfonyl)piperidin-4-yl)isoxazole-3-carboxamide], the IC50 came to 1.04 µM.

For the origin of these results see patent publication US10577363B2, “Substituted piperidine compounds” (EPIZYME, INC., priority 2014, dated 2020).
